Measured values reported in US10686136B2, “Hole transporting material, OLED display panel and electronic device comprising the same” (SHANGHAI TIANMA AM-OLED CO., LTD., priority 2016, dated 2020).
≈ marks a conversion by molar mass, not a printed value.

What was measured:
[1] = Hole mobility rate of the hole transporting material; format: physicochemical; conditions: hole transporting layer material
[2] = Solubility in NMP; format: physicochemical; conditions: NMP solvent
[3] = cited from earlier work
[4] = prior art material of CN103108859; cited from earlier work
[5] = commercially available hole transporting layer material

hole mobility rate [1] | SMILES | also measured
3.5×10^−4 cm^2/V·S | Cc1ccc(-c2ccc(N(c3ccc(-c4ccccc4)cc3)c3ccc(-c4ccc(N(c5ccc(-c6ccccc6)cc5)c5ccc(-c6ccc(C)cc6)cc5)cc4)cc3)cc2)cc1 [Com. Example 2] | solubility in NMP [2]: 2200 µg/mL (≈ 2.68 mM)
3×10^−4 cm^2/V·S | c1ccc(-c2ccc(N(c3ccc(-c4ccccc4)cc3)c3ccc(-c4ccc(N(c5ccc(-c6ccccc6)cc5)c5ccc(-c6ccccc6)cc5)cc4)cc3)cc2)cc1 [Com. Example 1] | –
0.00041 cm²/(V·s) | Cc1ccc(-c2ccc(N(c3ccc(-c4ccccc4)cc3)c3ccc(-c4ccc(N(c5ccc(-c6ccccc6)cc5)c5ccc(-c6ccc(C)cc6)cc5)c5c4CCCC5)cc3)cc2)cc1 [Example 1] | solubility in NMP [2]: 10000 µg/mL (≈ 11.4 mM)
1.8×10^−4 cm^2/V·S | Cc1cc(N(c2ccc(-c3ccccc3)cc2)c2ccc(-c3cccc4c3CCCC4)cc2)ccc1-c1ccc(N(c2ccc(-c3ccccc3)cc2)c2ccc(-c3cccc4c3CCCC4)cc2)cc1 [Example 3] | –
2.1×10^−4 cm^2/V·S | Cc1cccc(-c2ccc(N(c3ccc(-c4cccc5c4CCCC5)cc3)c3ccc(-c4ccc(N(c5ccc(-c6cccc(C)c6)cc5)c5ccc(-c6cccc7c6CCCC7)cc5)c5c4CCCC5)cc3)cc2)c1 [Example 2] | –
2×10^−4 cm^2/V·S | c1ccc(-c2ccc(N(c3ccc(-c4ccccc4)cc3)c3ccc(N(c4ccc(-c5ccccc5)cc4)c4ccc(-c5ccccc5)cc4)cc3)cc2)cc1 [Com. Example 4] | –
1.9×10^−4 cm^2/V·S | Cc1ccccc1-c1ccc(N(c2ccc(-c3ccccc3)cc2)c2ccc(-c3ccc(N(c4ccc(-c5ccccc5)cc4)c4ccc(-c5ccccc5C)c5c4CCCC5)c4c3CCCC4)cc2)c2c1CCCC2 [Example 4] | –
– | CC1(C)c2ccccc2-c2ccc(N(c3ccc4c(c3)C3(c5ccccc5-c5ccccc53)c3ccccc3-4)c3ccccc3-c3ccccc3)cc21 | mobility rate ([3]; prior art material of CN103108859): higher; solubility [4]: good
– | c1ccc(-c2ccc(N(c3ccc(-c4ccccc4)cc3)c3ccc(N(c4ccc(-c5ccccc5)cc4)c4ccc(-c5ccccc5)cc4)cc3)cc2)cc1 [drawing 1] | lateral mobility rate [3, 5]: not very high; longitudinal mobility rate [3, 5]: higher
7×10^−5 cm^2/V·S | c1ccc(-c2ccc(N(c3ccc(-c4ccccc4)cc3)c3ccc(-c4ccc(N(c5ccc(-c6ccccc6)cc5)c5ccc(-c6ccccc6)cc5)c5c4CCCC5)cc3)cc2)cc1 [Com. Example 3] | –
